We go through 8 compounds from paper PMC5469208 (Molecular microbiology, 2016).

Series [1] concerns ClpC1. The settings on record: ref Gavrish et al., 2014 (lassomycin); Gao et al., 2014 (ecumicin); cited from earlier work.
Series [2] deals with ClpC1. The settings on record: binding to the ATPase ClpC1; ref Schmitt et al., 2011; cited from earlier work.
The test system of series [3] is M. bovis BCG Pasteur. In words: microbe, parasite or virus in culture. In kind it is cell-based, Mycobacterium bovis BCG.
Series [4] has as its system M. bovis BCG clpP1-tetoff. Briefly: microbe, parasite or virus in culture. In kind it is cell-based, Mycobacterium bovis BCG.
The subject of series [5] is M. smegmatis mc^2155. In words: MIC determination by broth microdilution, M. smegmatis. In kind it is cell-based, Mycobacterium smegmatis. The settings on record: Mycolicibacterium smegmatis, MC^2155, 48 h. A general note: Broth dilution looks for growth in wells or tubes with falling amounts of substance.
In series [6] the test system is M. tuberculosis H37Rv. In words: MIC determination by broth microdilution, M. tuberculosis. The following applies: Mycobacterium tuberculosis. In kind it is cell-based.
The subject of series [7] is B. subtilis 168. Briefly: MIC determination by broth microdilution, B. subtilis 168 wt. In kind it is cell-based. The settings on record: Bacillus subtilis, 168, B. subtilis 168 wt, LB medium.
In series [8] the test system is B. subtilis 168-pX2-clpP. In words: MIC determination, conditional strain B. subtilis 168-pX2-clpP. The format is cell-based. The settings on record: Bacillus subtilis, 168PX2CLPP, LB medium.
For series [9], the system named is B. subtilis 168ΔclpP. Briefly: microbe, parasite or virus in culture. The format is cell-based. The settings on record: Bacillus subtilis, LB medium.
The subject of series [10] is M. bovis BCG clpP1-tetoff. In kind it is cell-based, Mycobacterium bovis BCG.
The subject of series [11] is ClpP2. In kind it is cell-based, M. bovis BCG.
Series [12] has as its system M. bovis wildtype (wt). In kind it is cell-based, Mycobacterium bovis BCG.
For series [13], the target named is MTB ClpP1P2 (Mycobacterium tuberculosis, UniProt P9WPC3+P9WPC5). Briefly: Z-GGL-amc peptidase activity of Z-LL pre-activated ClpP1P2. The format is biochemical, M. tuberculosis. The following applies: 5 mM Z-LL, without ADEP.
Series [14] deals with T1, BS ClpP (Bacillus subtilis, UniProt P80244). In words: Z-LL stability in the presence of BS ClpP, HPLC. The arrangement: species or system B. subtilis. The following applies: 1 mM Z-LL, 3 μM BS ClpP, 3 h, 37 °C, activity buffer, Fig. S3.
Series [15] concerns the target T1, BS ClpP. In words: suc-LY-amc hydrolysis competition assay with BS ClpP. The following applies: 3 μM BS ClpP, 30 μM suc-LY-amc, 0–60 μM ADEP2, 0, 500 or 2500 μM Z-LL, pH 8. The format is biochemical, B. subtilis.
Series [16] deals with S. aureus. The following applies: ref Conlon et al., 2013; cited from earlier work.
The mark [17] stands for this setting: M. bovis BCG wt, 25 ng ml^−1 ATc.
Where [18] appears, read: M. bovis BCG wt, no ATc (Table 2).
Setting [19] is: Mycobacterium tuberculosis variant bovis BCG, BCG.

In brackets after ≈: the same amount, converted by molar mass. Entries after “also recorded” stand apart in the source; their conditions may differ. Where two headings read alike, the source gives them in different places.

T1 sequence (P80244 whole entry): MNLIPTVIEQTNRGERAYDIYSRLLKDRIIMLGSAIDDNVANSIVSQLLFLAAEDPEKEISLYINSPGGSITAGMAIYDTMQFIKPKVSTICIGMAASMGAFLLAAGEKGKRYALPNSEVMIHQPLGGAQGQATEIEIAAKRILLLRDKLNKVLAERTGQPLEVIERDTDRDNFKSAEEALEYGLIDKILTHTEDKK

Turning to lassomycin, the “ATP-hydrolysis by ClpC1, uncoupling from protein degradation by ClpP1P2” value in series [1] was “stimulate ATP-hydrolysis by ClpC1, while uncoupling it from protein degradation by ClpP1P2”.
Turning to Cyclomarin, in series [2], the “hydrolysis of a model protein in M. smegmatis” value is “increased hydrolysis of a model protein”.
As for `NNC(=O)c1ccncc1` [isoniazid], the MIC in [3] (M. bovis BCG Pasteur, 7H9 medium) is 0.06 µg/mL (≈ 0.438 µM); in series [3] (setting [17]) it was 0.06 µg/mL (≈ 0.438 µM); in [3] (setting [18]), 0.06 µg/mL (≈ 0.438 µM); in [3] (setting [19]), 0.06 µg/mL (≈ 0.438 µM); in series [4] (setting [19]) it was 0.03 µg/mL (≈ 0.219 µM); in [5], 4 µg/mL (≈ 29.2 µM). The “effect of ATc (clpP1P2 down-regulation) on sensitivity to the antibiotic” value in [4] was “did not occur”.
As for `CN[C@@H]1[C@@H](O[C@H]2O[C@H](CO)[C@@H](N)[C@H](O)[C@H]2O)OC2C[C@@H](N)[C@@H](O[C@H]3[C@H](O)[C@@H](O)[C@H](N)C[C@@H]3N)OC2[C@@H]1O` (some centres unmarked) [apramycin], the MIC worked out at 1 µg/mL (≈ 1.85 µM) in series [6]; 2 µg/mL (≈ 3.71 µM) in series [7] (10% xylose); 4 µg/mL (≈ 7.41 µM) in series [7] (no xylose); 1 µg/mL (≈ 1.85 µM) in series [8] (1% xylose); 2 µg/mL (≈ 3.71 µM) in [8] (2% xylose); 2 µg/mL (≈ 3.71 µM) in series [8] (3% xylose). The MIC in [8] (4% xylose) was determined as 4 µg/mL (≈ 7.41 µM); in [8] (5% xylose), 2 µg/mL (≈ 3.71 µM); in series [8] (8% xylose), 4 µg/mL (≈ 7.41 µM); in [8] (10% xylose), 4 µg/mL (≈ 7.41 µM); in series [8] (no xylose), 2 µg/mL (≈ 3.71 µM); in series [3] (setting [17]), 1 µg/mL (≈ 1.85 µM). Further, the MIC in [3] (setting [18]) is 1 µg/mL (≈ 1.85 µM); in series [3] (setting [19]) it was 1 µg/mL (≈ 1.85 µM); in series [9] (10% xylose) it was 1 µg/mL (≈ 1.85 µM); in series [9] (no xylose), 2 µg/mL (≈ 3.71 µM). In addition, in series [4], the “effect of ATc (clpP1P2 down-regulation) on sensitivity to the antibiotic” value is given as “did not occur”.
As to ecumicin, in [1], the “ATP-hydrolysis by ClpC1, uncoupling from protein degradation by ClpP1P2” value is reported as “stimulate ATP-hydrolysis by ClpC1, while uncoupling it from protein degradation by ClpP1P2”.
On to `Cc1c2c(c(O)c3c(O)cccc13)C(=O)[C@]1(O)C(=O)C(C(N)=O)=C(O)[C@@H](N(C)C)[C@@H]1C2` [ATc, anhydrotetracycline], for which the “growth of clpP1-tetoff strain” value in series [10] was “slowed down the growth rate; also recorded: the cells were dying”. The “ClpP2 / ClpP1P2 protein level” value in series [11] is on record as “considerably reduced level”. Besides, the “growth of M. bovis wildtype” value in [12] (2 ng ml^−1 ATc) is “not affected”; in series [12] (25 ng ml^−1 ATc, MIC growth controls) it was “did not impede growth of the wildtype strain”.
For benzyloxycarbonyl-leucyl-leucine [Z-LL], in series [13], the “peptidase activity of ClpP1P2 activated by Z-LL alone” value is listed as “able to degrade the fluorogenic peptide substrate Z-GGL-amc”. The “amount of Z-LL after incubation with BS ClpP” value in [14] is “not reduced after 3 hours incubation”. Further, the “mode of inhibition of Z-LL versus ADEP2” value in series [15] is given as “non-competitive with ADEP”.
Regarding `CO[C@H]1/C=C/O[C@@]2(C)Oc3c(C)c(O)c4c(O)c(c(/C=N/N5CCN(C)CC5)c(O)c4c3C2=O)NC(=O)/C(C)=C\C=C\[C@H](C)[C@H](O)[C@@H](C)[C@@H](O)[C@@H](C)[C@H](OC(C)=O)[C@@H]1C` [Rifampicin], the “synergy with ADEP against S. aureus” value in series [16] was “act synergistically with ADEP against S. aureus”.
